These results are taken from patent publication US12552854B2, “Peptides that block presentation of antigenic islet peptides by HLA-DQ8 and methods for treating type-1 diabetes” (Icahn School of Medicine at Mount Sinai, priority 2019, dated 2026).

A short description of data set [1]: Metabolic stability in mouse hepatocytes. It is filed as in vitro ADME. The note with it: 1 μM. On the procedure:
Cryopreserved mouse hepatocytes were thawed at 37° C. in water bath until the ice was almost melted (˜90 seconds). The suspensions from the each were immediately transferred to 50 mL centrifuge tubes containing pre-warmed thawing media (VitroGRO HT Medium, Thawing) at 37° C. The cell suspensions were centrifuged at 50 g for 5 minutes at 4° C. (SYS679). Supernatants were discarded and the pellets were re-suspended in pre-warmed 3 mL incubation media (from in vitroGRO HT Medium, Incubation) at 37° C. The percentages of viable cells in the suspension were determined by using the Trypan Blue stain method (20 μL of tryptan blue and 20 μL of cell suspension) DF=2. Cryo mouse hepatocyte (Bioreclamation, lot #CHV) viability was 72.62% (viable/dead=305/115), and the total cells were 4.57 million. 1.57 mL of incubation media was added to cell concentration to get 1 million cells/mL. 10 μl of 100 μM test compounds stock in ACN:H2O (v:v, 1:1) was added to 990 μl of hepatocyte suspension/incubation media in a 24-well plate. 10 μl of 20 μM Midazolam was added to 990 μl of hepatocyte suspension as a positive control in a 24-well plate. The cells were incubated in a 37° C. incubator (SYS431) for 4 hours. 50 μl of aliquots (n=2) were added to 800 ul of MeOH:water (v:v, 5:95) at 0, 15, 30, 60, 120, 180 and 240 minutes. For all samples, 20 μL of internal standard (200 ng/mL tolbutamide) was added to the solution in water. The samples were vortexed vigorously for 5 minutes and then loaded onto a pre-conditioned Oasis HLB 96-well SPE plate (10 mg, […]). The Oasis HLB 96-well SPE plate was conditioned with 1 mL of methanol and then rinsed with 1 mL of water before the samples were loaded. Once loaded onto the Oasis HLB 96-well SPE plate, residual solution was removed by vacuum. The samples were eluted into a clean 96-well plate with 800 μL of 0.1% formic acid in 70% acetonitrile. The samples were evaporated to dryness under nitrogen at ambient temperature using a TurboVap 96 Concentration Workstation (Caliper Life Sciences). […]

Data set [2] relates to splenocytes isolated from SJL-DQ8 mice. Put plainly: Ex vivo CFSE T-cell proliferation, splenocytes of InsB:9-23-immunized SJL-DQ8 mice. The note with it: all peptides at 50 μg/ml; 5 days. It is filed as cell-based, mouse. The source says:
ID NO: 23) and reverse primer [NT]

A short description of data set [3]: FIG. 23A. On the procedure: (§1) Table printed on a drawing sheet, FIG. 23A
(§2) Data from a dose of 10 mg/kg and a single discrete subcutaneous dose of 10 mg/kg are shown. FIG. 23B is a graph showing mean RI-CT whole blood concentrations in male CD-1 mice following a single IV bolus dose of 10 mg/kg and a single SC dose of 10 mg/kg. […] This is a long half-life that will make it feasible to use RI-CT in a clinical setting with a once daily dose.
First reader's note: SC arm; the last four rows (n, Mean, SD, CV%) are summary statistics over the animals, and the meaning of ** is not printed on the sheet.

In data set [4] the test system is PBMCs isolated from DQ8 positive T1D patients. The data set is described as follows: Cytokine production in PBMCs from DQ8 positive recent-onset T1D patients. The class given is cell-based, human. The note with it: stimulated with InsB:9-23 for 48 h; all peptides at 50 μg/ml. From the text: Subjects with a diagnosis of T1D within the previous 2 years were recruited from the Pediatric Endocrine clinic at Children Hospital at Montefiore and from the adult Endocrine clinics at Montefiore and Mount Sinai Hospitals (New York). Peripheral blood mononuclear cells (PBMCs) were isolated from heparinized blood using Ficoll-Paque (GE Healthcare); freshly isolated PBMCs were used for T-cell activation studies and for genotyping. DNA purified from the blood of the patients was typed for HLA-DQ as previously described (32). PBMCs isolated from DQ8 positive patients were seeded in 96 well plates with 200 μl medium (RPMI, 10% FBS). […] The stimulated PBMCs were assessed for cytokine production and T-cell proliferation as described above for mouse splenocytes. DQ8 typed patients with long standing T1D (>10 years) were used as negative controls in the experiments (no T-cell responses to islet peptides).

Data set [5] can be described thus: FIG. 23A. On the procedure:
as §1, §2
First reader's note: IV arm; the last four rows (n, Mean, SD, CV%) are summary statistics over the animals, and the urine values are one merged cell for Mouse 1-4.
This is another data set of the same source.

Where “and” joins values, the source holds several entries; their conditions need not be identical. Equal entries are not always repeated. Entries after “also recorded” stand apart in the source; their conditions may differ. Where two headings read alike, the source gives them in different places.

`CC(C)C[C@@H](NC(=O)[C@@H](Cc1ccc(O)cc1)NC(=O)[C@@H](CC(C)C)NC(=O)[C@H](NC(=O)[C@@H](CS)NC(=O)CNC(=O)[C@@H](CCC(=O)O)NC(=O)[C@@H](CCCNC(=N)N)NC(=O)CNC(=O)CN)C(C)C)C(=O)N[C@H](C)C(=O)N[C@H](CCC(=O)O)C(=O)N[C@@H](C(=O)NCC(=O)NCC(=O)O)C(C)C` [RI-CT]: the “consumption of the peptide after incubation with murine hepatocytes” value in data set [1] (4 hours) is listed as “little/no consumption”. The “metabolic stability (comparison)” value in data set [1] (mouse hepatocytes) is given as “higher metabolic stability compared to RI-EXT”. Besides, the “T-cell proliferation induced by InsB:9-23 (CFSE assay), SJL-DQ8 splenocytes” value in data set [2] was “significantly suppressed; also recorded: significantly decreased”. Besides, in data set [3], the “AUClast” value was found to be 3830 ng·h/mL and the “MRTinf” value is reported as 4.50 h. In addition, in data set [4], the “IFN-γ production, PBMCs of DQ8 positive T1D patients” value is “significantly suppressed; also recorded: significantly decreased” and the “IL-2 production, PBMCs of DQ8 positive T1D patients” value was “significantly suppressed; also recorded: significantly decreased”. In data set [5], the “AUC0-24” value was determined as 5340 ng·h/mL; the “AUClast” value was 4350 ng·h/mL and 6260 ng·h/mL and 5520 ng·h/mL; the “C0” value is recorded as 15400 ng/mL; the “MRTinf” value is given as 4.72 h. Besides, in data set [5], the “Urine | CLrenal” value is 2.6 mL/min/kg and the “Urine | Recovery (%)” value stood at 8.70%.
